# Several values for one entry are separate records, joined by “and”; a condition that tells them apart may be missing. Equal values may be shown once. Entries after “also recorded” stand apart in the source; their conditions may differ. Read-outs that look alike come from different tables or passages of the source.
# Assays:
# [1] = Population pharmacokinetic model, oxypurinol; type: in vivo, human
# Description: CL = CLTYP * (1 + log(1+k*DOSE_[…]))
# Where CLTYP is typical value of clearance and k is a coefficient for verinurad dose (1/mg).
# xanthine oxidase (XO) [2] = target: T1, xanthine oxidase (XO) (Homo sapiens, UniProt P47989); parameters: method as in Aksenov et al. 2018 [23]; settings: fixed, not estimated; ref Aksenov et al. 2018 [23]; cited from earlier work
# T1 construct: from tissue
# T1 sequence (P47989 whole entry): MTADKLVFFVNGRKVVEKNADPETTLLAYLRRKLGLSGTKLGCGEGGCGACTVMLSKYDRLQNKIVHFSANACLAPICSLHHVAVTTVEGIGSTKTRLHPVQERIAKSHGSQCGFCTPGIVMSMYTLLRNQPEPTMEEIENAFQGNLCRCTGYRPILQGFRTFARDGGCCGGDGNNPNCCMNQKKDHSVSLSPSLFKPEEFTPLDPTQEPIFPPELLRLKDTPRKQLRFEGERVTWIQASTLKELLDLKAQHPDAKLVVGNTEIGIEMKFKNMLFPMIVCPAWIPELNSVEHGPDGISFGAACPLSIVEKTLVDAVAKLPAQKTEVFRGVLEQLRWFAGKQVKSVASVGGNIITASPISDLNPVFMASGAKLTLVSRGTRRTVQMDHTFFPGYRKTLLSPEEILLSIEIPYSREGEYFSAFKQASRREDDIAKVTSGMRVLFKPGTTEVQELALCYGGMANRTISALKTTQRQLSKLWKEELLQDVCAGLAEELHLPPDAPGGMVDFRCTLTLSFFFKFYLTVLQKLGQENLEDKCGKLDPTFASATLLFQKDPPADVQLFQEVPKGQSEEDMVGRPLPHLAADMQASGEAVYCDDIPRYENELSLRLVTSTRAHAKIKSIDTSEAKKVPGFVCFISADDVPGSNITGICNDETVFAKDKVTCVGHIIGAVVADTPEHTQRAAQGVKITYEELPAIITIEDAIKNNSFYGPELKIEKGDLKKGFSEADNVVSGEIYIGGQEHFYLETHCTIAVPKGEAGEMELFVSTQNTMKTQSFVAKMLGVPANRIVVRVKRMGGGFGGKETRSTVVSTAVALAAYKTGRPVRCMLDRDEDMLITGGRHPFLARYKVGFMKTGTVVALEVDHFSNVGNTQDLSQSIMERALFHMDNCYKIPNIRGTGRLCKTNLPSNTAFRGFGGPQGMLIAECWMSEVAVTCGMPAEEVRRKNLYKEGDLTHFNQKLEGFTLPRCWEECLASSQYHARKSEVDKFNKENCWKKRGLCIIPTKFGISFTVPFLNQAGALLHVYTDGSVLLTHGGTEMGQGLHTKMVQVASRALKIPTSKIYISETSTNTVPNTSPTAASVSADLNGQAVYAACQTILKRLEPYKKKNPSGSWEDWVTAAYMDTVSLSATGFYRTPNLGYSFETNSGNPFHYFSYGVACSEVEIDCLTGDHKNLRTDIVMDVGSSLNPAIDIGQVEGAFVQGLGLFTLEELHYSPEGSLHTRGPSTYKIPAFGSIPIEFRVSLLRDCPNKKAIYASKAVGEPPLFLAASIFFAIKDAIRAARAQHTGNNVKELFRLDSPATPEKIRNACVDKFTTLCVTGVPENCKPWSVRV
# xanthine oxidase (XO) [3] = target: T1, xanthine oxidase (XO); assay: Semi-mechanistic exposure-response uric acid model: XOI inhibition of uric acid production rate (clinical sUA/uUA data); type: in vivo
# URAT1 [4] = target: T2, URAT1 (Homo sapiens, UniProt Q96S37); parameters: method as in PMID 21148271, PMID 18492088; settings: fixed, not estimated; consistent with FEUA in URAT1 loss of function mutations; cited from earlier work
# T2 construct: from tissue; host or cells: kidney (proximal tubule) of human study subjects, in vivo
# T2 sequence (Q96S37 1-553): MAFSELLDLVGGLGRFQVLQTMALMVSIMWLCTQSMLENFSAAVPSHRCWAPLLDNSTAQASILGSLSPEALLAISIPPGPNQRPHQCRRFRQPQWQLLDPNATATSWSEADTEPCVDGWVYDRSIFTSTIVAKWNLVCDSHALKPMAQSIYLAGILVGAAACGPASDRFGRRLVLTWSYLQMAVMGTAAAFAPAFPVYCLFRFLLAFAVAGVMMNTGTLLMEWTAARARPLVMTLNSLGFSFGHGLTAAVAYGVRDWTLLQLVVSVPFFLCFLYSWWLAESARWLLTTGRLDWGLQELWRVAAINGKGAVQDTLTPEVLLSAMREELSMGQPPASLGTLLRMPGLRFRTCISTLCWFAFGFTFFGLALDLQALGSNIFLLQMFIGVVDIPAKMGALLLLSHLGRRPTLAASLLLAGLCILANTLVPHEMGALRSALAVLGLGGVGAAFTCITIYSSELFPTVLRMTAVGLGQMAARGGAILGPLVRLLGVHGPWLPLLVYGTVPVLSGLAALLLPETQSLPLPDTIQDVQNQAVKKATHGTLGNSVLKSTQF
# URAT1 [5] = target: T2, URAT1; assay: Semi-mechanistic exposure-response uric acid model: verinurad inhibition of uric acid reabsorption (clinical sUA/uUA data); type: in vivo
SMILES,"Decrease of oxypurinol exposure when administered together with verinurad ([1]; 12 mg verinurad, according to the model)","Vd ([1]; human, in vivo, oral, read-out: Central volume of distribution) [L]","Absorption rate constant ([1]; oxypurinol after allopurinol dosing, popPK estimate) [h⁻¹]",Emax (maximum inhibition of uric acid production) (xanthine oxidase (XO) [2]),"EC50 (xanthine oxidase (XO) [3]; plasma concentration giving half-maximal inhibition of production rate, typical value, read-out: EC50 (reducing uric acid production) (converted)) [nM]",EC50 (xanthine oxidase (XO) [3]) [nM],"Febuxostat EC50 difference, healthy volunteers versus hyperuricemic patients (xanthine oxidase (XO) [3]; human, in vivo)",Emax (maximum increase in fractional excretion of uric acid) (URAT1 [4]),"EC50 (URAT1 [5]; plasma concentration giving half-maximal inhibition of reabsorption, typical value, healthy volunteers, read-out: Verinurad EC50 (reducing uric acid reuptake) (converted))","EC50 (URAT1 [5]; plasma concentration, symptomatic hyperuricemic (gout) patients, read-out: Verinurad EC50, symptomatic hyperuricemic (gout) subjects (converted))","Verinurad EC50 difference, asymptomatic hyperuricemic patients versus healthy volunteers (URAT1 [5]; studies D5495C00001 and D5495C00007)"
O=c1[nH]c(=O)c2c[nH]nc2[nH]1 [oxypurinol],approximately 30%,45.7,0.3343,0.84,85700,–,–,–,–,–,–
Cc1nc(-c2ccc(OCC(C)C)c(C#N)c2)sc1C(=O)O [febuxostat],–,–,–,1,–,405,no differences; also recorded: not found to be significantly different,–,–,–,–
CC(C)(Sc1ccncc1-c1ccc(C#N)c2ccccc12)C(=O)O [verinurad],–,–,–,–,–,–,–,0.7,83.2 nM and 84.4 nM,106 nM and 107 nM,no significant difference

# Source: paper PMC8225519, “A semi-mechanistic exposure–response model to assess the effects of verinurad, a potent URAT1 inhibitor, on serum and urine uric acid in patients with hyperuricemia-associated diseases” (Journal of Pharmacokinetics and Pharmacodynamics, 2021)
